Source: patent US5624931A, “Pyrazole derivatives” (Fujisawa Pharmaceutical Co., Ltd., priority 1991, dated 1997)

Legend:
[1] = test system: Interleukin-1 (IL-1) production, human peripheral blood monocyte; assay: Inhibitory activity on the production of Interleukin-1 (IL-1) in LPS-stimulated purified human peripheral blood monocytes (IL-1 ELISA); assay type: cell-based; conditions: 48 h, bacterial lipopolysaccharide 1 μg/10^4 cells, 2 days at 37° C., IL-1β ELISA, read-out: IC50 (inhibition of IL-1 production)
Method: (a) Inhibitory activity on the production of Interleukin-1 (IL-1)
Purified human peripheral blood monocyte were stimulated with bacterial lipopolysaccharide (1 μg/10^4 cells) in the absence or presence of appropriately diluted test compound for 2 days at 37° C. in a humidified 5% CO2 atmosphere. Culture supernatants were tested for IL-1 ELISA assay.
Test compound was dissolved in absolute DMSO (dimethyl sulfoxide) to achieve 10 mM stock solutions and was subsequently diluted in serum free RPMI1640.
IL-1 levels were quantified by a commercial ELISA kit (Ohtsuka assay, Japan) using a sandwich technique. The sensitivity levels for the detection of IL-1β were 20 pg/ml.
(§1) The inhibitory concentration that caused a 50% inhibition (IC50) was calculated by regression analysis of the dose-response data.

[2] = test system: tumor necrosis factor (TNF) production, human peripheral blood monocyte; assay: Inhibitory activity on the production of tumor necrosis factor (TNF) in LPS-stimulated purified human peripheral blood monocytes (TNF ELISA); assay type: cell-based; conditions: 48 h, bacterial lipopolysaccharide 1 μg/10^4 cells, 2 days at 37° C., read-out: IC50 (inhibition of TNF production)
Method: (b) Inhibitory activity on the production of tumor necrosis factor (TNF)
Purified human peripheral blood monocyte were stimulated with bacterial lipopolysaccharide (1 μg/10^4 cells) in the absence or presence of appropriately diluted test compound for 2 days at 37° C. in a humidified 5% CO2 atmosphere. Culture supernatants were tested for TNF ELISA assay.
TNF levels were quantified by a commercial ELISA kit (Endogen, Inc. USA) using a sandwich technique. The sensitivity levels for the detection of TNF were 12 pg/ml.
as §1

IC50 [1]: 38 nM
SMILES: Fc1ccc(-c2nn3c(c2-c2ccncc2)NCCC3)cc1 [Example 2-(1), 2-(4-fluorophenyl)-3-(pyridin-4-yl)-4,5,6,7-tetrahydropyrazolo[1,5-a]pyrimidine]
IC50 [2]: 116 nM
